Reference: PubChem BioAssay (NCI)
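Results reflect a 48-hour exposure of cells in 96-well plates to compound at five concentrations. GI50 = concentration required for 50% inhibition of growth. TGI: concentration producing complete growth inhibition.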

Tests used:
Assay in all cases: NCI tumour cell line growth inhibition, 48 h
A498 renal = test system: A498 renal
HCC-2998 colon = test system: HCC-2998 colon
HCT-15 colon = test system: HCT-15 colon
LOX IMVI melanoma = test system: LOX IMVI melanoma
M14 melanoma = test system: M14 melanoma
MOLT-4 leukemia = test system: MOLT-4 leukemia
OVCAR-5 ovarian = test system: OVCAR-5 ovarian
SK-MEL-28 melanoma = test system: SK-MEL-28 melanoma
SR leukemia = test system: SR leukemia
SW-620 colon = test system: SW-620 colon

SMILES	GI50 (A498 renal) [µM]	TGI (A498 renal) [µM]	GI50 (HCC-2998 colon) [µM]	TGI (HCC-2998 colon) [µM]	GI50 (HCT-15 colon) [µM]	TGI (HCT-15 colon) [µM]	GI50 (LOX IMVI melanoma) [µM]	TGI (LOX IMVI melanoma) [µM]	GI50 (M14 melanoma) [µM]	TGI (M14 melanoma) [µM]	GI50 (MOLT-4 leukemia) [µM]	TGI (MOLT-4 leukemia) [µM]	GI50 (OVCAR-5 ovarian) [µM]	TGI (OVCAR-5 ovarian) [µM]	GI50 (SK-MEL-28 melanoma) [µM]	TGI (SK-MEL-28 melanoma) [µM]	GI50 (SR leukemia) [µM]	TGI (SR leukemia) [µM]	GI50 (SW-620 colon) [µM]	TGI (SW-620 colon) [µM]
Clc1ccc2nc(CI)c(CI)nc2c1	29.7	> 60.7	15.7	30.3	3.46	12.1	1.64	3.37	3.16	> 19.8	1.89	9.08	6.98	19.5	14.4	27.7	1.68	6.79	2.54	6.62
CC(C)(C)N/N=C(\C(=O)Nc1nc(=S)[nH][nH]1)C1C(=O)Nc2ccccc2S1=O (stereo not given)	–	> 100	–	> 100	–	> 100	–	> 100	–	> 100	–	> 100	–	> 100	–	> 100	–	> 100	–	> 100
CCCCCCCC/C=C1\CCC(CN2CCOCC2)C1=O (stereo not given)	–	29.9	–	26.2	–	9.52	–	9.94	–	16.7	–	5.35	–	36.5	–	21.2	–	5.3	–	8.39
COC(=O)C(=O)C(C(=O)C(=O)Nc1ccccc1OC)c1nc2ccc([N+](=O)[O-])cc2[nH]c1=O (stereo not given)	–	> 100	–	> 100	–	> 100	–	> 100	–	> 100	–	> 100	–	> 100	–	> 100	–	> 100	–	> 100
NC(N)=NC(N)=NCCCc1ccco1	> 500	> 500	> 500	> 500	> 500	> 500	52.2	121	53.6	123	28.3	176	148	> 500	23.1	91.3	19.6	89.8	18.2	125
Cc1[nH]c(N)nc(=S)c1CCC(=O)O	–	> 100	–	> 100	–	> 100	–	> 100	–	> 100	–	> 100	–	> 100	–	> 100	–	> 100	–	> 100
O=C(/C=C1\C(=O)N(Cc2ccccc2)c2ccccc21)c1ccc(OCCN2CCCCC2)cc1	14.2	28.8	1.86	3.47	1.71	3.31	1.71	3.14	1.92	3.72	1.87	6.44	1.76	3.6	2.09	4.36	1.77	9.55	1.7	3.3
O=C(c1ccco1)c1c(C(F)(F)F)n([O-])c2cc(C(F)(F)F)ccc2[n+]1=O	1.53	3.28	0.371	0.862	0.404	0.842	0.299	0.73	1.62	3.05	0.0773	0.162	1.86	3.39	1.67	3.27	0.0394	0.265	0.498	1.1
CC(=O)O[C@H]1C(=O)[C@@]2(C)[C@H]([C@H](OC(=O)c3ccccc3)[C@]3(O)C[C@H](OC(=O)[C@H](OC(=O)OC[C@H]4COC(C)(C)O4)[C@@H](NC(=O)c4ccccc4)c4ccccc4)C(C)=C1C3(C)C)[C@]1(OC(C)=O)CO[C@@H]1C[C@@H]2O	0.0545	0.499	0.00983	> 33.3	0.228	> 33.3	0.014	> 33.3	0.0171	0.133	0.0408	> 33.3	0.0433	> 33.3	> 33.3	> 33.3	0.0126	> 33.3	0.0138	> 33.3
Cc1ccc2c(c1)C(=O)c1c-2c(OCCCN(C)C)nc2ccccc12	4.02	14.3	2.18	11.8	0.548	1.94	1.18	2.52	1.62	3.23	0.427	4.57	1.47	3.65	1.76	3.41	0.316	1.38	0.587	2.02
CCOC(=O)C12C(C(=O)OC)=C(C)N(NC(=O)Nc3ccccc3)C1(N)N(NC(=O)Nc1ccccc1)C(C)=C2C(=O)OC (stereo not given)	–	> 100	–	86.8	–	> 100	–	33.6	–	45.6	–	46.7	–	> 100	–	> 88.7	–	59.1	–	> 100
